Test results published in patent publication US7968575B2, “Nitric oxide donors and uses thereof” (priority 2004, dated 2011).
“Also recorded” adds a separate entry of the source.

Experiments:
c-GMP [1] = assay: Cyclic-GMP measurement in aortic rat tissue (radioimmunoassay); assay type: cell-based; settings: isolated rat aorta, FIGS. 25, 27 and 33; in words
Experimental: GTN (10^−6 M) was added to the chamber and, 1 minute after exposure to the drug, rings (usually 3-5) were taken, wrapped with aluminum foil and immediately frozen in liquid nitrogen for storage. Control sample group was treated with the vehicle solution only. At the time of analysis, rings were thawed, blotted over a dry gauzed and weighted. A known weight of tissue was homogenized in 2 ml ice-cold modified Hank's balanced salt solution containing (in gram/liter) NaCl 8; KCl 0.4; glucose 1; KH2PO4 0.06; Na2HPO4 0.047; Phenol red 0.017 and further containing 25 mM EDTA (disodium salt). The homogenate was centrifuged at 4000 g (force units) for 10 minutes at 2-4° C. and the supernatant was thereafter transferred into fresh pre-cooled test tube containing 1 ml of acetonitrile. The tubes were vortex mixed for a few seconds and subsequently centrifuged at 4000 g for 5 minutes at 2-4° C., to remove the precipitated protein. Each supernatant was transferred into a clean test tube and evaporated to dryness under a stream of nitrogen at 55° C. The dry residue was reconstituted with 10 volumes of Tris-EDTA buffer pH 7.5 (0.05 M Tris containing 4 mM EDTA). Aliquots of 100 μl of the reconstituted solution in duplicate were used for c-GMP measurements using Amersham RIA kit, as is described in Haj-Yehia & Benet [Pharmacology, 1995, 273, 1, pp. 94-100]. Standard curves were plotted with six concentrations (0, 0.5, 1, 2, 4 and 8 pmoles of c-GMP per tube).
The NO-tolerance effect of GTN and NO-donor compounds according to the present invention was measured by following the production of c-GMP in slices of thoracic aorta of rats. Thus, the production of c-GMP was measured as described in the methods section above for the reference NO-donor compound GTN, and for the NO-donors of the present invention Pet-2, Pet-3, Pet-7, Pet-8, Pet-10, Pet-12, Pet-24, Pet-59, Pet-147, Pet-149, Pet-152, Pet-154 and Pet-155.

isolated rat aorta [2] = assay: In vitro vasorelaxation of epinephrine-contracted rat aortic rings (cumulative concentration-response curves); assay type: cell-based; settings: isolated rat aorta pre-treated in vitro with 1 μM epinephrine; in words
From the text: Male Sprague Dawley rats were anaesthetized using intraperitoneal injection of ketamine and xylazine (50 and 10 milligram per kilogram, respectively) and the thoracic aorta, the large upper portion of the descending aorta, starting at the caudal border of the chest bone, was removed thereafter, while carefully removing the paraadventetial tissue surrounding the vessel. Aortae were cut into rings of 4-5 millimeters and mounted onto the tissue path. The path buffer (Krebs-bicrbonate) was constantly gassed with carbogen and maintained at 37° C. The rings were preloaded under 2 g tension and equilibrated for 90 minutes, while refreshing the buffer every 15 minutes. After stabilization, the rings were contracted with epinephrine (1 μM). Cumulative Concentration-Response Curves (CCRC) were measured for the vasorelaxing effect induced by adding various concentrations, ranging from 10^−10 M to 10^−5 M of Pet-2, Pet-3, Pet-7, Pet-8, Pet-12, Pet-24, Pet-43, Pet-59, Pet-147, Pet-152 and Pet-154, and glyceryltrinitrate (GTN), according to the procedure described in Feelich et al., Molecular Pharmacology, 56:243-253 (1999). The vehicle, which was used for this experiment was water:ethanol:propyleneglycol at proportional ratio of 1:1:1.
The vasorelaxing effect of the thiazole-derived NO-donors according to the present invention was measured on slices of thoracic aorta of rats contracted with epinephrine, as described hereinabove.

isolated rat aorta [3] = assay: In vitro induction of tolerance: vasorelaxation of aortic rings pre-exposed to the NO-releasing compound; assay type: cell-based; settings: vasorelaxation in rings pre-treated with 0.44 mM of the compound versus control rings; in words
Experimental: Aortic rings were prepared as described hereinabove, and were exposed to 0.44 mM GTN (vehicle was water:ethanol:propyleneglycol at proportional ratio of 1:1:1) for 1 hour before CCRC construction, to thereby induce tolerance to nitroglycerine. At the end of the tolerance induction period, rings were thrice washed with the path buffer (Krebs-bicrbonate) every 15 minutes for the following hour and then CCRC for vasorelaxation on GTN-induced tolerance rings were constructed for GTN (pretreated versus untreated rings, FIG. 15), in order to verify the ability to induce and measure GTN tolerance induction in vitro
Attempted induction of tolerance to the NO-donating compounds of the present invention was performed under the same conditions as for GTN. Thus, in an exemplary experiment, rings were exposed to 0.44 mM solution of Pet-3 in the attempt to induce tolerance for Pet-3. CCRC were then measured for the vasorelaxing effect of Pet-3 on a group of rings which were pre-exposed to Pet-3 as to induce tolerance to Pet-3, and for an untreated control group. The above protocol was repeated with Pet-2, Pet-7, Pet-8, Pet-12, Pet-24, Pet-43, Pet-149 and Pet-152.

c-GMP [4] = assay: Induction of in vivo nitrate tolerance (cGMP in aorta isolated after 16 hour infusion); parameters: species or system rat; settings: in words; for tolerance induction in vivo: cGMP accumulation in isolated aorta of rats pre-treated in vivo with the compound
Experimental: For c-GMP levels and tolerance development, the rat's thoracic aorta was isolated after exposure to the tested compound in vivo, and measured as described above in the in vitro assays.
Male Sprague Dawley rats (220 to 250 grams) were housed under constant temperature and humidity conditions. Light was maintained at a 12/12 light dark cycle. Except for 12 hours before the experiment, when food fasting was initiated, all rats had free access to standard rat pellet diet and tap water. The animals were anesthetized by intraperitoneal injection of ketamine and xylazine combination (50 and 10 milligram per kilogram, respectively). […] The catheters were filled with normal saline solution containing 1000 IU/ml of heparin and plugged with a metal pin. Catheters were externalized to the back of the neck region and secured by a polyester felt disk.
After implantation, the rats were individually housed until they regained their preoperative weight and appeared healthy (3 to 4 days post-operation). At this time point (day 0), an osmotic mini-pump (Alza Corp., Palo Alto, Calif.) delivering constant volume (10 μl/hour) of vehicle or drug was connected to one of the intravenous catheters.
For inducing tolerance to the tested NO-donor according to the present invention, the animals received 200 μg/hour of the tested compound for 16 hours (short-term-induced tolerance). A similar number of animals were processed by the same surgical procedure and received the vehicle alone (10 μl/hour of a solution consisting of 30% ethanol and 30% propylene glycol in sterile distilled water for injection).
At the end of the infusion periods used for the development of tolerance (16 hour), the rats were anesthetized as described above, the two catheters were externalized and the delivering catheters were disconnected from the mini-pump. The abdomen was opened by midline incision and the thoracic aorta were isolated, washed and cleaned from the surrounding tissues. Strips of the treated aortas were pooled in chambers containing Krebs-Hanseliet buffer (10 ml), and exposed to 1 μM of the tested NO-donor (final concentration) for 120 seconds. The tissues were quickly collected and frozen in liquid nitrogen for cGMP measurement, described hereinabove.

isolated rat aorta [5] = assay: Cross-tolerance studies on aortic rings (GTN / Pet-12 pre-treatment); assay type: cell-based; settings: in words
Experimental: Cross-tolerance studies were conducted using the same technique described above for measuring vasorelaxation of aortic rings from rats. Two groups of aortic rings samples were pre-treated with GTN, then one group was measured for vasorelaxation by GTN and the second group for vasorelaxation by Pet-12, an exemplary NO-donor according to the present invention. For the opposite cross-tolerance studies, two groups of aortic rings samples were pre-treated with Pet-12, then one group was measured for vasorelaxation by GTN and the second group for vasorelaxation by Pet-12.

## Cc1nc(-c2ccc(C(F)(F)F)cc2)sc1CCO[N+](=O)[O-] [Pet-59, 4-Methyl-5-(2-nitrooxy-ethyl)-2-(4-trifluoromethyl-phenyl)-thiazole]
c-GMP [1]
  levels of cGMP as compared with GTN: increased levels of cGMP
Isolated rat aorta [2]
  vasorelaxation effect as compared with glyceryltrinitrate: superior

## Cc1nc(NC(=O)[C@@H](C)c2ccc(CC(C)C)cc2)sc1CCO[N+](=O)[O-] (stereo in doubt) [Pet-152, 2-(4-Isobutyl-phenyl)-N-[4-methyl-5-(2-nitrooxy-ethyl)-thiazol-2-yl]-propionamide]
c-GMP [1]
  levels of cGMP as compared with GTN: increased levels of cGMP
Isolated rat aorta [2]
  vasorelaxation effect as compared with glyceryltrinitrate: superior

## Cc1nc(N(C)C)sc1CCO[N+](=O)[O-] [Pet-7, Dimethyl-[4-methyl-5-(2-nitrooxy-ethyl)-thiazol-2-yl]-amine]
c-GMP [1]
  levels of cGMP as compared with GTN: increased levels of cGMP
Isolated rat aorta [3]
  tolerance induction in vitro: absence of tolerance induction

## Cc1nc(NC(=O)c2cccnc2)sc1CCO[N+](=O)[O-] [Pet-154, N-[4-methyl-5-(2-nitrooxy-ethyl)-thiazol-2-yl]-nicotinamide]
c-GMP [1]
  levels of cGMP as compared with GTN: increased levels of cGMP

## Cc1nc(N)sc1CCO[N+](=O)[O-] [Pet-10, 4-methyl-5-(2-nitrooxy-ethyl)-thiazole-2-ylamine]
c-GMP [1]
  levels of cGMP as compared with GTN: increased levels of cGMP

## Cc1nc(Nc2cccc3ccccc23)sc1CCO[N+](=O)[O-] [Pet-149, [4-Methyl-5-(2-nitrooxy-ethyl)-thiazol-2-yl]-naphthalen-1-yl-amine]
c-GMP [1]
  levels of cGMP as compared with GTN: increased levels of cGMP
Isolated rat aorta [3]
  tolerance induction in vitro: absence of tolerance induction
Isolated rat aorta [2]
  vasorelaxation effect as compared with glyceryltrinitrate: superior

## Cc1nc(Nc2nc(C)c(CCO[N+](=O)[O-])s2)sc1CCO[N+](=O)[O-] [Pet-43, Bis-[4-methyl-5-(2-nitrooxy-ethyl)-thiazol-2-yl]-amine]
Isolated rat aorta [3]
  tolerance induction in vitro: absence of tolerance induction
Isolated rat aorta [2]
  vasorelaxation effect as compared with glyceryltrinitrate: superior

## Cc1nc(-c2ccccc2)sc1CCO[N+](=O)[O-] [Pet-8, 4-Methyl-5-(2-nitrooxy-ethyl)-2-phenyl-thiazole]
c-GMP [1]
  levels of cGMP as compared with GTN: increased levels of cGMP
Isolated rat aorta [2]
  vasorelaxation effect as compared with glyceryltrinitrate: superior

## CCNc1nc(C)c(CCO[N+](=O)[O-])s1 [Pet-147, Ethyl-[4-methyl-5-(2-nitrooxy-ethyl)-thiazol-2-yl]-amine]
c-GMP [1]
  levels of cGMP as compared with GTN: increased levels of cGMP

## C=CCNc1nc(C)c(CCO[N+](=O)[O-])s1 [Pet-155, allyl-[4-methyl-5-(2-nitrooxy-ethyl)-thiazol-2-yl]-amine]
c-GMP [1]
  levels of cGMP as compared with GTN: increased levels of cGMP
Isolated rat aorta [2]
  vasorelaxation effect as compared with glyceryltrinitrate: superior

## CCc1nc(C)c(CCO[N+](=O)[O-])s1 [Pet-2, 2-Ethyl-4-methyl-5-(2-nitrooxy-ethyl)-thiazole]
c-GMP [4]; aorta of rats infused 200 μg/hour for 16 hours, then exposed to 1 μM compound for 120 seconds
  level of cGMP following a repeated treatment in vivo: remained substantially unchanged
c-GMP [4]
  tolerance induction in vivo: absence of tolerance induction; also recorded: absence of tolerance effect
Isolated rat aorta [2]
  vasorelaxation effect as compared with glyceryltrinitrate: superior

## Cc1nc(C)c(CCO[N+](=O)[O-])s1 [Pet-3, 2,4-Dimethyl-5-(2-nitrooxy-ethyl)-thiazole]
c-GMP [1]
  levels of cGMP as compared with GTN: increased levels of cGMP
Isolated rat aorta [3]
  tolerance induction in vitro: absence of tolerance induction
Isolated rat aorta [2]
  vasorelaxation effect as compared with glyceryltrinitrate: superior

## CNc1cncc(-c2nc(C)c(CCO[N+](=O)[O-])s2)n1 [Pet-24, Methyl-{6-[4-methyl-5-(2-nitrooxy-ethyl)-thiazol-2-yl]-pyrazin-2-yl}-amine]
c-GMP [1]
  levels of cGMP as compared with GTN: increased levels of cGMP
Isolated rat aorta [3]
  tolerance induction in vitro: absence of tolerance induction

## Cc1nc(-c2cccnc2)sc1CCO[N+](=O)[O-] [Pet-12, 3-[4-Methyl-5-(2-nitrooxy-ethyl)-thiazole-2-yl]-pyridine]
Isolated rat aorta [5]; aortic rings pre-treated with epinephrine and then with GTN
  vasorelaxation in GTN-tolerant rings (cross-tolerance): absence of tolerance induction effect; also recorded: has no effect on the vasorelaxation capacity
Isolated rat aorta [5]; aortic rings pre-treated with epinephrine and then with Pet-12
  tolerance after pre-treatment with Pet-12 (to itself and to GTN): absence of tolerance induction effect; also recorded: does not evoke tolerance to itself not to GTN
Isolated rat aorta [3]
  tolerance induction in vitro: absence of tolerance induction
c-GMP [4]
  tolerance induction in vivo: absence of tolerance induction; also recorded: absence of tolerance effect; also recorded: lack of tolerance induction
